Test results as given in patent US20060241174A1, “Vitamin E tocotrienols inhibition of intracellularly obligate pathogen Chlamydia and methods of use” (priority 2005, published 2006).

Columns and labels:
[1] = system: C. trachomatis SVK; assay: Flow cytometry on Chlamydia-infected human B-lymphocytes (JY) treated with delta tocotrienol; format: cell-based, Chlamydia trachomatis
Protocol: FIG. 5 illustrates flow cytometry on Chlamydia-infected human B-lymphocytes treated with delta tocotrienol. Human B-lymphocyte (JY) cells were treated with a 30 μmol/L concentration of delta tocotrienol in culture for 4 hours, infected with C. trachomatis SVK for 24-72 hours. Immunofluorescent Chlamydia-positive cells were detected by flow cytometry.
(§1) Chlamydial Strains: Stocks of C. trachomatis serovar K/VR887 were grown in J774A.1 cells without centrifuge assistance. Infected cells were lysed, this stock aliquoted and frozen down in SPG freeze medium (75.0 g sucrose, 0.52 g potassium phosphate, 1.22 g sodium phosphate dibasic, 0.72 g glutamic acid, diluted in […] ddH2O). These aliquots were stored in liquid N2 or at −80° C., and later thawed for use to infect monolayers.
Cell Lines Used: Mouse macrophages (J774A.1), human mammary tumor cells (MCF-7), and human epithelial cells (Hep-2), were obtained from the American Type Culture collection. Human mammary tumor cells (TMX2-28) were a kind gift from Dr. Arcaro, and human B-lymphocytes (JY) were a kind gift from Dr. Eric Martz. All cell lines were maintained in Richter's improved MEM insulin (IMEMZO, Irvine Scientific, Santa Ana, Calif.) with 5% fetal bovine serum (FBS, Atlanta Biologicals, Norcross, Ga.). Cells were grown to 80% confluence on 12 mm coverslips in 12 well plates (Becton Dickinson Labware, Franklin Lakes, N.J.). A dilution of 1:125 or 1:200 of the C. trachomatis serovar K stock was made using the standard complete cycloheximide overlay media (Bio-Whittaker, Walkersville, Md.) containing 10% FBS, and 1× L-glutamine (CCOM). This was layered onto the coverslip containing monolayers, and incubated for 24-48 hours at 37° C. with 5% CO2. Coverslips with the cell monolayers were harvested, rinsed with phosphate buffered saline (PBS), fixed with 70% cold methanol, stored and subsequently immunostained. […]
Immunostaining: Briefly, infected cells were immunostained with a 1:2 dilution of guinea pig anti-chlamydia polyclonal antibody (Biomeda, Foster City, Calif.), or a 1:125 dilution of rabbit anti-chlamydia EB whole serum for 1 hour at 37° C. Following PBS rinses X3, the bound antibodies were detected using a 1:100 dilution of FITC-conjugated donkey anti-guinea pig or a 1:125 dilution of TRITC-conjugated goat anti-rabbit secondary antibodies (Jackson ImmunoResearch, West Grove, Pa.). […] For photography, slides were assessed in the Massachusetts Central Microscopy Facility using a Zeiss LSM 510 Meta Confocal System and 630× magnification. […]
Samples were analyzed for carriage of Chlamydia-infected cells by FACScan (Becton, Dickinson and Company, Franklin Lakes, N.J.).

[2] = system: tumors; settings: background statement, no source given; cited from earlier work
[3] = system: C. trachomatis serovar K; assay: Inclusion count by immunofluorescence in C. trachomatis-infected mouse macrophages (J774A.1) treated with delta tocotrienol; format: cell-based, Chlamydia trachomatis
Protocol: FIG. 3 illustrates Chlamydia-infected mouse macrophage cells treated with delta tocotrienol (400× magnification). Mouse macrophages (J774A. 1 cells) were pretreated with a 30 μmol/L concentration of delta tocotrienol in culture for 4 hours and infected with C. trachomatis SVK for 48 hours. Arrows indicate inclusions. Cells were viewed and digitally documented using a Zeiss LSM 510 Meta Confocal System at a magnification of 400×. White arrows point out characteristic inclusions (Scale indicates 50 μm).
FIG. 4 illustrates Chlamydia-infected mouse macrophage cells treated with delta tocotrienol (630× magnification). White arrows point to representative cells. Note numerous very small, unfused inclusions in A (Scale indicates 50 μm).
as §1
Cell Lines Used: Mouse macrophages (J774A.1), human mammary tumor cells (MCF-7), and human epithelial cells (Hep-2), were obtained from the American Type Culture collection. Human mammary tumor cells (TMX2-28) were a kind gift from Dr. Arcaro, and human B-lymphocytes (JY) were a kind gift from Dr. Eric Martz. All cell lines were maintained in Richter's improved MEM insulin (IMEMZO, Irvine Scientific, Santa Ana, Calif.) with 5% fetal bovine serum (FBS, Atlanta Biologicals, Norcross, Ga.). Cells were grown to 80% confluence on 12 mm coverslips in 12 well plates (Becton Dickinson Labware, Franklin Lakes, N.J.). A dilution of 1:125 or 1:200 of the C. trachomatis serovar K stock was made using the standard complete cycloheximide overlay media (Bio-Whittaker, Walkersville, Md.) containing 10% FBS, and 1× L-glutamine (CCOM). This was layered onto the coverslip containing monolayers, and incubated for 24-48 hours at 37° C. with 5% CO2. Coverslips with the cell monolayers were harvested, rinsed with phosphate buffered saline (PBS), fixed with 70% cold methanol, stored and subsequently immunostained.
Delta Tocotrienol Treatment: A stock of delta tocotrienol (98% purity, American River Nutrition, Hadley, Mass.) was diluted to 1 mg/1 ml in absolute ethanol [EtOH]. Confluent monolayers of J774A.1, MCF-7, TMX2-28, JY, or Hep-2 cells were treated with 5, 10, 20, 30, or 40 μmol/L concentrations of delta tocotrienol. Treatment occurred 5 hours prior to infection with C. trachomatis serovar K, at point of infection, or three hours post-infection.
Immunostaining: Briefly, infected cells were immunostained with a 1:2 dilution of guinea pig anti-chlamydia polyclonal antibody (Biomeda, Foster City, Calif.), or a 1:125 dilution of rabbit anti-chlamydia EB whole serum for 1 hour at 37° C. Following PBS rinses X3, the bound antibodies were detected using a 1:100 dilution of FITC-conjugated donkey anti-guinea pig or a 1:125 dilution of TRITC-conjugated goat anti-rabbit secondary antibodies (Jackson ImmunoResearch, West Grove, Pa.). Following incubation for 1 hour at room temperature and 3 rinses with PBS, coverslips were mounted onto slides using Fluoromount-G (Southern Biotechnology Associates Inc., Birmingham, Ala.) or Vectashield® Mounting Medium with DAPI (Vector Laboratories, Inc., Burlingame, Calif.), and were then sealed. Initially, slides were examined at 400× using a Nikon LABPHOT-2. For photography, slides were assessed in the Massachusetts Central Microscopy Facility using a Zeiss LSM 510 Meta Confocal System and 630× magnification. Images were captured, and as relevant, merged using the Confocal Assistant™ version 4.02 Image Processing Software.
Counts on all coverslips with experimental conditions as in FIG. 3 and 4 were done for the average of 10 fields of view. […]

[4] = system: Cells in culture
[5] = First Infection, J774A.1, 30 μmol/L
[6] = Second Infection, J774A.1, 30 μmol/L
[7] = Third Infection, J774A.1, 30 μmol/L

## delta tocotrienol
[1]; at 36 hours, 30 μmol/L, flow cytometry
  maximum chlamydial inhibition in JY cells: 2.6 fold
[1]; following one single tocotrienol treatment
  persistence of effect: at least 3 days
[1]; one single tocotrienol treatment
  period in which chlamydial inhibition was effective: ≤ 1 days
[1]; over an infection period of 72 hours, 30 μmol/L, flow cytometry
  chlamydial inhibition in JY cells: at least 2 fold
[2]
  reduction of tumors: ≤ 70%
[3]; 20-40 μmol/L delta tocotrienol, Chlamydia-specific immunofluorescence staining
  morphology of chlamydial inclusions (FIG. 4): immature, small, and less round
[3]; [5]
  Inclusions (per field of view), Small (≦10 μm): 4.5 per field of view
  Inclusions (per field of view), Total: 5.2 per field of view
  Inclusions Total/Cell: 0.058
[3]; First Infection, J774A.1, 30 μmol/L delta tocotrienol, average of 10 fields of view
  Inclusions (per field of view), Large (15-20 μm): 0.7 per field of view
[3]; First Infection, treated vs control, J774A.1, 30 μmol/L
  Percent Inhibition: 52.3%
[3]; J774A.1, 30 μmol/L pretreatment, 48 hours infection, 400× magnification
  large, mature inclusions (FIG. 3): no evidence of large, mature inclusions
[3]; J774A.1, control cells 20 μm
  size of large inclusions in the tocotrienol-treated cells: 10-15 μm
[3]; J774A.1, optical sections, treated vs control
  inclusions thinner than in control cells (Z-axis): 3 fold
[3]; J774A.1, treated vs control
  inclusions smaller than in control cells (X-Y axes): 2 to 3 fold
[3]; Second Infection (supernatant transfer to uninfected treated cells), J774A.1, 30 μmol/L
  Inclusions (per field of view), Large (15-20 μm): 1.4 per field of view
[3]; [6]
  Inclusions (per field of view), Small (≦10 μm): 0.6 per field of view
  Inclusions (per field of view), Total: 2.0 per field of view
  Inclusions Total/Cell: 0.032
[3]; Second Infection, treated vs control, J774A.1, 30 μmol/L
  Percent Inhibition: 43.8%
[3]; [7]
  Inclusions (per field of view), Large (15-20 μm): 0.7 per field of view
  Inclusions (per field of view), Small (≦10 μm): 1.1 per field of view
  Inclusions (per field of view), Total: 1.8 per field of view
  Inclusions Total/Cell: 0.016
[3]; Third Infection, treated vs control, J774A.1, 30 μmol/L
  Percent Inhibition: 39.0%
[3]; calculated (2×3 to 3×3)
  chlamydial inclusion volume smaller than control: 6-9 fold
[3]; summary of Table 1, 30 μmol/L
  percent inhibition of inclusion formation in tocotrienol-treated as compared to untreated cells: 40-50%
[3]; tocotrienol-treated cells vs control, FIG. 3, Table 1
  number of chlamydial inclusions (immunofluorescence staining): decreased significantly
[4]
  cell number compared to cells grown in culture medium: no difference in cell number
